Several values for one entry are separate records, joined by “and”; a condition that tells them apart may be missing. Identical values can stand only once. Like-named read-outs stand apart in the source and are kept apart here.
Experiments:
[1] = design: method as in PMID 30389822; settings: cited from earlier work
[2] = design: method as in PMID 30389822; settings: cited from earlier work; remark: listed apart in the source
[3] = Experimental logP and logD determination (1-octanol/water or PBS, gamma counter); assay type: physicochemical; settings: experimentally determined; for logD: 1-octanol/PBS; for logP: 1-octanol/water
Protocol: One microliter radiotracer solution (0.4 MBq) was added to a mixture of 500 µl water or PBS and 500 µl 1-octanol. After thorough shaking, the suspension was shortly centrifuged for phase separation, samples were drawn from each phase, and radioactivity concentration was measured in a gamma counter (WIZARD2, PerkinElmer, Waltham, MA, USA).

HCC1937 cells = experiment: In vitro radiotracer uptake, acid wash; assay type: cell-based, human; settings: glycine-HCl in PBS 50 mM pH 2.8 vs medium
Protocol: For the acid wash, cells were distributed in 96-well filter plates as described before and incubated with the radiotracer solution for 30 min at 37 °C. After an initial wash with 100 µl medium, cells were either washed twice (1: 100 µl, 2: 200 µl) with medium or with glycine–HCl in PBS (50 mM, pH 2.8) followed by a final wash with 200 µl medium and measured in a gamma counter.

HCC1937 xenografts = experiment: PET/MR imaging and ex vivo biodistribution in xenograft-bearing mice; design: species or system NOD.CB17-Prkdc^scid/J mice; settings: for Xenograft uptake (TACs from dynamic PET): 1-h dynamic PET; for tumor-to-blood ratio (TBR) / tumor-to-muscle ratio (TMR): ex vivo biodistribution; for tumor-to-blood ratio (TBR) / tumor-to-muscle ratio (TMR) / liver-to-kidney ratio (LKR): mean value; for Renal clearance / bladder uptake in PET images: i.v., dynamic PET, minutes 50-60
Protocol: (§1) All animal experiments were performed according to the German animal welfare act and approved by the local authorities (Regierungspräsidium Tübingen, R3/18). Animals were housed in individually ventilated cages (IVCs, 5 mice per cage) with bedding and enrichment, and food and water was provided ad libitum. Animals were kept under isoflurane anesthetic (1.5% in pure oxygen, 1.5 l/min) during the experiments. In 1:1 ice-cold Matrigel (Thermo Scientific)/PBS, 1 × 10^7 cells were injected subcutaneously in the right shoulder area of 7-week-old female NOD.CB17-Prkdc^scid/J mice (n = 10 per tracer). After the xenografts reached a suitable size (302 ± 152 mm^3), mice were injected with 12.45 ± 0.87 MBq, 12.68 ± 0.39 MBq, and 12.94 ± 0.45 MBq, respectively, of [^18F]PARPi, [^18F]FPyPARP, and [^18F]FTT and subjected to 1-h dynamic (n = 7 per tracer) or 10-min static (n = 3 per tracer, 1-h resting uptake) PET imaging (Inveon D-PET, Siemens, Knoxville, TN, USA) with subsequent magnetic resonance (MR) anatomical scans using a 7-T Biospec 70/30 USR (Clinscan, Bruker Biospin MRI GmbH) and a T2-weighted spin echo sequence. Five mice of each dynamically acquired group underwent a second, 10-min static PET scan 2-h post-injection (p.i.). Mice were sacrificed by cervical dislocation, the collected organs were weighed, and the tissue uptake was determined by gamma-counting (WIZARD2). Liver and kidney tissue was frozen in Tissue-Tek (Labtech, East Sussex, Britain) and 20-µm slices were prepared for autoradiography. A storage phosphor screen (Molecular Dynamics, Caesarea, Israel) was exposed to the sections for 18 h and scanned at a resolution of 100 µm/px with a STORM phosphor imager (Molecular Dynamics). PET image reconstruction and correlation with MR images was performed with Inveon Acquisition Workplace and Inveon Research Workplace, respectively, using a user-defined dynamic framing and an ordered subset expectation maximization (OSEM3D) algorithm. Regions of interest (ROIs) were drawn according to the acquired MR images and co-registered with the PET data to obtain time-activity curves (TACs).
Statistical analyses are represented as mean values ± standard deviation. Analyses were performed using GraphPad Prism 9 and non-parametric t tests (comparison of two groups) and one-way ANOVA (comparison of more than two groups). Blood half-life was calculated using a two-phase decay fit in GraphPad Prism 8. p values < 0.05 were considered statistically significant according to the software (*p < 0.05, **p < 0.01, ***p < 0.001, ****p < 0.0001).

[4] = Blood half-life, two-phase decay fit; assay type: in vivo, NOD.CB17-Prkdc^scid/J mice; settings: calculated with two-phase decay fit
Protocol: as §1, with “PET image reconstruction and correlation with MR images was performed with Inveon Acquisition Workplace and Inveon Research Workplace, respectively, using a user-defined dynamic framing and an ordered subset expectation maximization (OSEM3D) algorithm. Regions of interest (ROIs) were drawn according to the acquired MR images and co-registered with the PET data to obtain time-activity curves (TACs).” left out
Statistical analyses are represented as mean values ± standard deviation. […] Blood half-life was calculated using a two-phase decay fit in GraphPad Prism 8. p values < 0.05 were considered statistically significant according to the software (*p < 0.05, **p < 0.01, ***p < 0.001, ****p < 0.0001).

[5] = design: method as in PMID 32245901; settings: cited from earlier work
[6] = design: method as in Lynparza monograph, AstraZeneca; settings: reported value; ref Lynparza monograph, AstraZeneca; cited from earlier work
[7] = system: ABCB1 (encoding MDR1 P-glycoprotein); design: method as in PMID 24700236; settings: cited from earlier work
[8] = Serum stability analysis in mouse serum; assay type: in vitro ADME; settings: C57BL/6 J mouse serum, 37 °C, over 240 min, HPLC
Protocol: (§2) Serum stability was assessed by mixing [^18F]FPyPARP solution 1:1 with C57BL/6 J mouse or human (blood type AB + , Sigma-Aldrich, Steinheim, Germany) serum. After 0-, 30-, 60-, 120-, and 240-min incubation at 37 °C, samples were drawn and the proteins were precipitated by adding ice-cold MeCN to a final concentration of 50%. The supernatant after centrifugation (12,100 × g, 90 s) was analyzed by HPLC as described for radiotracer quality control.

[9] = Serum stability analysis in human serum; assay type: in vitro ADME; settings: 37 °C, over 240 min, HPLC
Protocol: as §2

logD [3] | logP [3] | Blood half-life [4] | liver-to-kidney ratio (LKR) (HCC1937 xenografts; 2.5 h p.i.) | SMILES | Radiotracer uptake after acidic wash compared to medium wash (HCC1937 cells) | Xenograft uptake (TACs from dynamic PET) (HCC1937 xenografts) | tumor-to-blood ratio (TBR) (HCC1937 xenografts; 2.5 h p.i.) | tumor-to-muscle ratio (TMR) (HCC1937 xenografts; 2.5 h p.i.) | Renal clearance / bladder uptake in PET images (HCC1937 xenografts) | tumor-to-muscle ratio (TMR) (HCC1937 xenografts; 1.5 h p.i.) | other results
– | – | – | – | O=C(c1cc(Cc2n[nH]c(=O)c3ccccc23)ccc1[18F])N1CCN(C(=O)C2CC2)CC1 [[^18F]olaparib] | – | – | – | – | – | – | calculated logP [1]: 2.02; Clearance route [2]: only shows hepatobiliary clearance
1.94 | 1.1 | 2.1 ± 0.5 min | – | O=C1NCCn2c(-c3ccc(OCC[18F])cc3)nc3cccc1c32 [[^18F]FTT] | No difference | higher overall xenograft uptake | 2.46 ± 0.35 and 2.46 | 3.42 | no noticeable renal clearance | – | tumor-to-liver ratio (TLR) (HCC1937 xenografts; 1.5 h and 2.5 h p.i.): significantly higher at both time points
2.09 | 2.09 | 3 ± 0.7 min | 1.37 | O=C(c1ccc([18F])cc1)N1CCN(C(=O)c2cc(Cc3n[nH]c(=O)c4ccccc34)ccc2F)CC1 [[^18F]PARPi] | significantly higher uptake | within the same range | 3.41 ± 0.83 | – | some of the animals showed renal excretion | 5.3 | Time of first appearance of a radiometabolite ([5]; first-in-human clinical studies): 25 min; Renal clearance ([5]; in humans): 30%
– | – | – | – | O=C(c1cc(Cc2n[nH]c(=O)c3ccccc23)ccc1F)N1CCN(C(=O)C2CC2)CC1 [olaparib] | – | – | – | – | – | – | logD [6]: 1.49; Efflux transporter substrate [7]: efflux transporter of olaparib
1.16 | 1.16 | 2.6 ± 1.4 min | 0.60 | O=C(c1ccc(F)nc1)N1CCN(C(=O)c2cc(Cc3n[nH]c(=O)c4ccccc34)ccc2F)CC1 [[^18F]FPyPARP, 4-(4-Fluoro-3-(4-(6-fluoronicotinoyl)piperazine-1-carbonyl)benzyl)phthalazine-1(2H)-one] | No difference | within the same range | 3.99 ± 0.99 and 3.99 | 2.46 | all animals exhibiting strong radioactive signal in the bladder | 1.99 | Serum stability [8]: no significant radiometabolites and good radiotracer stability over 240 min; Serum stability [9]: no significant radiometabolites and good radiotracer stability over 240 min; Change of liver-to-kidney ratio between the 1.5 and 2.5 h time points (HCC1937 xenografts; 1.5 h vs 2.5 h p.i.): decreased; Liver uptake (TACs) (HCC1937 xenografts; early time points, in direct comparison to [^18F]PARPi): lower uptake values
